# According to ChEMBL document CHEMBL1136186, “Microcystin analogues comprised only of Adda and a single additional amino acid retain moderate activity as PP1/PP2A inhibitors” (Bioorg Med Chem Lett, 2003):
# *1 amine or outer side, *2 acyl side, *3 side chain or, on linkers, in order; H or OH if unused. Where a SMILES comes first, the peptide text is derived from it. Bridges are numbered along the chain shown (N, C = ends). [ ]: non-standard residue; d: D form. Adda = CO[C@@H](Cc1ccccc1)[C@@H](C)/C=C(C)/C=C/[C@H](N[*:1])[C@H](C)C(=O)[*:2]; dAsp(3S-Me) = C[C@H](C(=O)[*:3])[C@@H](N[*:1])C(=O)[*:2]; d(γGlu) = O=C(O)[C@@H](CCC(=O)[*:2])N[*:1]; NMeDha = C=C(NC)C(=O)O
# Experiments:
# Oryctolagus cuniculus = organism: Oryctolagus cuniculus; assay: Ratio of inhibition of PP1 to that of inhibition of PP2A using phosphorylase-a assay
# [1] = target: T1, Serine/threonine-protein phosphatase 2A catalytic subunit alpha isoform (Bos taurus, UniProt P67774); assay: Inhibitory concentration against protein phosphatase 2A (PP2A) using pNPP assay; parameters: species or system Oryctolagus cuniculus
# T1 sequence (P67774 whole entry, canonical isoform): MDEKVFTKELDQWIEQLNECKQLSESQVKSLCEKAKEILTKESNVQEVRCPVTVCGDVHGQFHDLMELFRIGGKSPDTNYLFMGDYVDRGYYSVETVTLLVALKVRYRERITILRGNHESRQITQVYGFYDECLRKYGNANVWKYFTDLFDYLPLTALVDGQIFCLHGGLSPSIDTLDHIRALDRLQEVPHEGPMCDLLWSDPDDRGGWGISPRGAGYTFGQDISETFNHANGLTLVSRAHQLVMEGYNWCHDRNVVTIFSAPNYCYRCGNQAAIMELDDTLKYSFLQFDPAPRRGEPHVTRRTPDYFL
# [2] = target: T1, Serine/threonine-protein phosphatase 2A catalytic subunit alpha isoform; assay: Inhibitory concentration against protein phosphatase 2A (PP2A) using phosphorylase-a assay; parameters: species or system Oryctolagus cuniculus
SMILES,Ratio (Oryctolagus cuniculus),IC50 [1],IC50 [2]
CO[C@@H](Cc1ccccc1)[C@@H](C)/C=C(C)/C=C/[C@H](NC(C)=O)[C@H](C)C(=O)N1[C@@H](C(=O)O)CC[C@H]1C(=O)O,> 5,10 µM,
C=C1C(=O)N[C@H](C)C(=O)N[C@@H](CC(C)C)C(=O)N[C@@H](C(=O)O)[C@H](C)C(=O)N[C@@H](C)C(=O)N[C@@H](/C=C/C(C)=C/[C@H](C)[C@H](Cc2ccccc2)OC)[C@H](C)C(=O)N[C@@H](C(=O)O)CCC(=O)N1C (A[Adda][d(γGlu)][NMeDha][dA]L[dAsp(3S-Me)]-OH; lactam N-7),1,0.003 µM,0.0003 µM
CO[C@@H](Cc1ccccc1)[C@@H](C)/C=C(C)/C=C/[C@H](NC(C)=O)[C@H](C)C(=O)N1C[C@H](C(=O)O)C[C@@H]1C(=O)O,,> 100 µM,
CO[C@@H](Cc1ccccc1)[C@@H](C)/C=C(C)/C=C/[C@H](NC(C)=O)[C@H](C)C(=O)N1[C@H](C(=O)O)CC[C@H]1C(=O)O,> 1.3,> 39 µM,
COC(=O)[C@@H]1CCCN1C(=O)[C@@H](C)[C@H](/C=C/C(C)=C/[C@H](C)[C@H](Cc1ccccc1)OC)NC(C)=O,,> 100 µM,
CC(=O)N[C@@H](/C=C/C(C)=C/c1ccccc1Cc1ccccc1)[C@H](C)C(=O)N[C@H](C)C(=O)O,,> 100 µM,
CO[C@@H](Cc1ccccc1)[C@@H](C)/C=C(C)/C=C/[C@H](NC(C)=O)[C@H](C)C(=O)N1CCC[C@@H]1C(=O)O,2,> 25 µM,
CO[C@@H](Cc1ccccc1)[C@@H](C)/C=C(C)/C=C/[C@H](NC(C)=O)[C@H](C)C(=O)NCC(=O)O,1.11,,0.5 µM
CC(=O)N[C@@H](/C=C/C(C)=C/c1ccc(-c2ccccc2)cc1)[C@H](C)C(=O)N[C@H](C)C(=O)O,,> 100 µM,
CO[C@@H](Cc1ccccc1)[C@@H](C)/C=C(C)/C=C/[C@H](NC(C)=O)[C@H](C)C(=O)N1C[C@H](C(=O)O)C[C@H]1C(=O)O,,> 100 µM,
CO[C@@H](Cc1ccccc1)[C@@H](C)/C=C(C)/C=C/[C@H](NC(C)=O)[C@H](C)C(=O)N1C[C@H](O[Si](C(C)C)(C(C)C)C(C)C)C[C@@H]1C(=O)O,> 2,> 63 µM,
CO[C@@H](Cc1ccccc1)[C@@H](C)/C=C(C)/C=C/[C@H](NC(C)=O)[C@H](C)C(=O)N1C[C@@H](C(=O)O)C[C@@H]1C(=O)O,,> 100 µM,
CO[C@@H](Cc1ccccc1)[C@@H](C)/C=C(C)/C=C/[C@H](NC(C)=O)[C@H](C)C(=O)N[C@@H](C)C(=O)O,1.22,,7.8 µM
CC(=O)N[C@@H](/C=C/C(C)=C/CCCc1ccccc1)[C@H](C)C(=O)N[C@H](C)C(=O)O,,> 100 µM,
CO[C@@H](Cc1ccccc1)[C@@H](C)/C=C(C)/C=C/[C@H](NC(C)=O)[C@H](C)C(=O)N1CCC[C@H]1C(=O)O,,> 100 µM,
CO[C@@H](Cc1ccccc1)[C@@H](C)/C=C(C)/C=C/[C@H](NC(C)=O)[C@H](C)C(=O)N[C@H](C)C(=O)O,6,7 µM,0.16 µM
COC(=O)[C@H]1CCCN1C(=O)[C@@H](C)[C@H](/C=C/C(C)=C/[C@H](C)[C@H](Cc1ccccc1)OC)NC(C)=O,,> 100 µM,
CO[C@@H](Cc1ccccc1)[C@@H](C)/C=C(C)/C=C/[C@H](NC(C)=O)[C@H](C)C(=O)N1CCCC1,,> 100 µM,
CO[C@@H](Cc1ccccc1)[C@@H](C)/C=C(C)/C=C/[C@H](NC(C)=O)[C@H](C)C(=O)N(CC(=O)O)CC(=O)O,,> 100 µM,
